Experiments:
Assay type in all cases: functional
[1] = system: HT-29; assay: Growth inhibition of human HT-29 cells after 72 hrs by sulforhodamine B assay; conditions: HT-29, 72 h
[2] = system: MDA-MB-231; assay: Growth inhibition of human MDA-MB-231 cells after 72 hrs by sulforhodamine B assay; conditions: MDA-MB-231, 72 h
[3] = system: A549; assay: Growth inhibition of human A549 cells after 72 hrs by sulforhodamine B assay; conditions: A549, 72 h

SMILES | GI50 [1] [nM] | GI50 [2] [nM] | GI50 [3] [nM]
C[C@H]1CC[C@@]2(OC1)O[C@H]1C[C@H]3[C@@H]4CC[C@H]5Cc6nc7c(nc6C[C@]5(C)[C@H]4CC(=O)[C@]3(C)[C@H]1[C@@H]2C)C[C@@H]1CC[C@H]2[C@@H]3C[C@@H]4O[C@]5(C[C@H](C)C(C)(C)O5)[C@](C)(O)[C@@H]4[C@@]3(C)CC(=O)[C@@H]2[C@@]1(C)C7 | 1600 | 2000 | 1600
C[C@H]1CC[C@@]2(OC1)O[C@H]1C[C@H]3[C@@H]4CC[C@H]5Cc6nc7c(nc6C[C@]5(C)[C@H]4CC(=O)[C@]3(C)[C@H]1[C@@H]2C)C[C@@H]1CC[C@@H]2[C@H](CC(=O)[C@]3(C)[C@@H]4[C@H](C[C@@H]23)O[C@]2(CC[C@H](C)CO2)[C@H]4C)[C@@]1(C)C7 | 2100 | 2600 | 1700
C[C@H]1C[C@]2(O[C@H]3C[C@H]4[C@@H]5CC[C@H]6C[C@H](O)CC[C@]6(C)[C@H]5[C@@H](O)C[C@]4(C)[C@H]3[C@@]2(C)O)OC1(C)C [EPIHIPPURISTANOL] | 4500 | 5600 | 3200

Reference: ChEMBL document CHEMBL1157694, “Synthesis of a new cytotoxic cephalostatin/ritterazine analogue from hecogenin and 22-epi-hippuristanol” (2010)
